Laboratory results reported in ChEMBL document CHEMBL1139171, “Synthesis and antifungal activity of 6-arylamino-phthalazine-5,8-diones and 6,7-bis(arylthio)-phthalazine-5,8-diones” (2007).
≈ marks a conversion by molar mass, not a printed value.

How the values were obtained:
Format in all cases: functional
Candida albicans = assay: Antifungal activity against Candida albicans Berkout KCCM 50235 after 1 day by broth dilution method; details: KCCM 50235, 24 h
Aspergillus niger = assay: Antifungal activity against Aspergillus niger KCTC 1231 after 2 days by broth dilution method
Candida tropicalis = assay: Antifungal activity against Candida tropicalis Berkout KCCM 50662 after 1 day by broth dilution method
Cryptococcus neoformans = assay: Antifungal activity against Cryptococcus neoformans KCCM 50564 after 1 day by broth dilution method; details: KCCM 50564, 24 h
Aspergillus flavus = assay: Antifungal activity against Aspergillus flavus KCCM 11899 after 2 days by broth dilution method
Pichia kudriavzevii = assay: Antifungal activity against Candida krusei Berkout KCCM 11655 after 1 day by broth dilution method; details: KCCM 11655, 24 h
[1] = Aspergillus niger, KCTC 1231, 48 h, read-out: MIC
[2] = Candida tropicalis, KCCM 50662, 24 h, read-out: MIC
[3] = Aspergillus flavus, KCCM 11899, 48 h, read-out: MIC

MIC (Candida albicans) [µg/mL] | MIC (Aspergillus niger; [1]) [µg/mL] | MIC (Candida tropicalis; [2]) [µg/mL] | MIC (Cryptococcus neoformans) [µg/mL] | MIC (Aspergillus flavus; [3]) [µg/mL] | MIC (Pichia kudriavzevii) [µg/mL] | MIC (Aspergillus niger) [µg/mL] | MIC (Candida tropicalis) [µg/mL] | MIC (Aspergillus flavus) [µg/mL] | Structure (SMILES)
3.2 (≈ 11.5 µM) | > 100 | 100 (≈ 358 µM) | 25 (≈ 89.5 µM) | > 100 | 50 (≈ 179 µM) | – | – | – | Cc1ccc(NC2=CC(=O)c3cnncc3C2=O)cc1C
6.3 (≈ 15.3 µM) | 12.5 (≈ 30.3 µM) | 6.3 (≈ 15.3 µM) | > 100 | > 100 | 100 (≈ 242 µM) | – | – | – | O=C1C(Sc2ccc(F)cc2)=C(Sc2ccc(F)cc2)C(=O)c2cnncc21
> 100 | > 100 | > 100 | 6.3 (≈ 39.3 µM) | 100 (≈ 624 µM) | 100 (≈ 624 µM) | – | – | – | Nc1ccc(N)c2cnncc12
25 (≈ 77.7 µM) | 100 (≈ 311 µM) | 3.2 (≈ 9.95 µM) | 50 (≈ 155 µM) | 100 (≈ 311 µM) | > 100 | – | – | – | O=C1C(Cl)=C(Nc2ccc(F)c(F)c2)C(=O)c2cnncc21
12.5 (≈ 37.9 µM) | 50 (≈ 151 µM) | 3.2 (≈ 9.69 µM) | 12.5 (≈ 37.9 µM) | 50 (≈ 151 µM) | 12.5 (≈ 37.9 µM) | – | – | – | O=C1C=C(Nc2ccc(Br)cc2)C(=O)c2cnncc21
25 (≈ 68.6 µM) | 25 (≈ 68.6 µM) | 12.5 (≈ 34.3 µM) | 3.2 (≈ 8.78 µM) | 25 (≈ 68.6 µM) | 25 (≈ 68.6 µM) | – | – | – | O=C1C(Cl)=C(Nc2ccc(Br)cc2)C(=O)c2cnncc21
12.5 (≈ 30.9 µM) | 6.3 (≈ 15.6 µM) | 50 (≈ 124 µM) | > 100 | 100 (≈ 247 µM) | > 100 | – | – | – | Cc1cccc(SC2=C(Sc3cccc(C)c3)C(=O)c3cnncc3C2=O)c1
50 (≈ 165 µM) | > 100 | 50 (≈ 165 µM) | 6.3 (≈ 20.7 µM) | > 100 | 50 (≈ 165 µM) | – | – | – | O=C1C(Cl)=C(Nc2ccc(F)cc2)C(=O)c2cnncc21
25 (≈ 70.7 µM) | 50 (≈ 141 µM) | 12.5 (≈ 35.3 µM) | 50 (≈ 141 µM) | 50 (≈ 141 µM) | 100 (≈ 283 µM) | – | – | – | O=C1C(Cl)=C(Nc2cccc(C(F)(F)F)c2)C(=O)c2cnncc21
12.5 (≈ 30.4 µM) | > 100 | 12.5 (≈ 30.4 µM) | 100 (≈ 243 µM) | 50 (≈ 121 µM) | 12.5 (≈ 30.4 µM) | – | – | – | O=C1C(Cl)=C(Nc2ccc(I)cc2)C(=O)c2cnncc21
12.5 (≈ 28.1 µM) | 6.3 (≈ 14.1 µM) | 100 (≈ 225 µM) | > 100 | > 100 | > 100 | – | – | – | O=C1C(Sc2cccc(Cl)c2)=C(Sc2cccc(Cl)c2)C(=O)c2cnncc21
12.5 (≈ 44.4 µM) | 25 (≈ 88.9 µM) | 6.3 (≈ 22.4 µM) | 6.3 (≈ 22.4 µM) | 25 (≈ 88.9 µM) | 12.5 (≈ 44.4 µM) | – | – | – | COc1ccc(NC2=CC(=O)c3cnncc3C2=O)cc1
50 (≈ 186 µM) | > 100 | 25 (≈ 92.9 µM) | 6.3 (≈ 23.4 µM) | 100 (≈ 371 µM) | 25 (≈ 92.9 µM) | – | – | – | O=C1C=C(Nc2ccc(F)cc2)C(=O)c2cnncc21
50 (≈ 93.6 µM) | > 100 | 50 (≈ 93.6 µM) | > 100 | 50 (≈ 93.6 µM) | > 100 | – | – | – | O=C1C(Sc2ccc(Br)cc2)=C(Sc2ccc(Br)cc2)C(=O)c2cnncc21
3.2 (≈ 7.14 µM) | 3.2 (≈ 7.14 µM) | 12.5 (≈ 27.9 µM) | 100 (≈ 223 µM) | 25 (≈ 55.8 µM) | > 100 | – | – | – | O=C1C(Sc2ccc(F)c(F)c2)=C(Sc2ccc(F)c(F)c2)C(=O)c2cnncc21
50 (≈ 175 µM) | 100 (≈ 350 µM) | 25 (≈ 87.5 µM) | 3.2 (≈ 11.2 µM) | 25 (≈ 87.5 µM) | 25 (≈ 87.5 µM) | – | – | – | O=C1C(Cl)=C(Nc2ccccc2)C(=O)c2cnncc21
> 100 | > 100 | > 100 | 25 (≈ 172 µM) | 100 (≈ 689 µM) | 100 (≈ 689 µM) | – | – | – | Nc1cccc2cnncc12
25 (≈ 57.3 µM) | 12.5 (≈ 28.6 µM) | 100 (≈ 229 µM) | > 100 | > 100 | 100 (≈ 229 µM) | – | – | – | COc1ccc(SC2=C(Sc3ccc(OC)cc3)C(=O)c3cnncc3C2=O)cc1
6.3 (≈ 23.7 µM) | 50 (≈ 188 µM) | 12.5 (≈ 47.1 µM) | 6.3 (≈ 23.7 µM) | 25 (≈ 94.2 µM) | 12.5 (≈ 47.1 µM) | – | – | – | Cc1ccc(NC2=CC(=O)c3cnncc3C2=O)cc1
100 (≈ 245 µM) | > 100 | > 100 | > 100 | > 100 | > 100 | – | – | – | O=C1C(Sc2ccc(O)cc2)=C(Sc2ccc(O)cc2)C(=O)c2cnncc21
– | 6.3 (≈ 16.7 µM) | 100 (≈ 266 µM) | – | > 100 | – | 6.3 (≈ 16.7 µM) | >100 | 100 (≈ 266 µM) | O=C1C(Sc2ccccc2)=C(Sc2ccccc2)C(=O)c2cnncc21
12.5 (≈ 39 µM) | > 100 | 12.5 (≈ 39 µM) | 100 (≈ 312 µM) | > 100 | 6.3 (≈ 19.7 µM) | – | – | – | O=C1C(Cl)=C(Nc2ccc(Cl)cc2)C(=O)c2cnncc21
25 (≈ 78.1 µM) | 12.5 (≈ 39 µM) | 25 (≈ 78.1 µM) | 3.2 (≈ 10 µM) | 25 (≈ 78.1 µM) | 25 (≈ 78.1 µM) | – | – | – | O=C1C(Cl)=C(Nc2cccc(Cl)c2)C(=O)c2cnncc21

Structure (SMILES) | MIC (Candida albicans) [µg/mL] | MIC (Aspergillus niger; [1]) [µg/mL] | MIC (Candida tropicalis; [2]) [µg/mL] | MIC (Cryptococcus neoformans) [µg/mL] | MIC (Aspergillus flavus; [3]) [µg/mL] | MIC (Pichia kudriavzevii) [µg/mL] | MIC (Aspergillus niger) [µg/mL] | MIC (Candida tropicalis) [µg/mL] | MIC (Aspergillus flavus) [µg/mL]
Nc1nc(=O)[nH]cc1F [FLUCYTOSINE] | 25 (≈ 194 µM) | 25 (≈ 194 µM) | 12.5 (≈ 96.8 µM) | 12.5 (≈ 96.8 µM) | 100 (≈ 775 µM) | 50 (≈ 387 µM) | – | – | –
